From ChEMBL document CHEMBL5500388, “Design, synthesis and biological evaluation of 4-(indolin-1-yl)-6-substituted-pyrido[3,2-d]pyrimidine derivatives as Mnk1/2 inhibitors” (Eur J Med Chem, 2024)

Assays:
K562 [1] = test: Induction of cell cycle arrest at G0/G1 stage in human K562 cells at 4 uM treated for 24 hrs by PI/RNase staining based flow cytometry (reference value: 38.8 %); type: functional
HCT-116 = test: cells; conditions: Homo sapiens, HCT-116, 96 h
MOLM-13 [2] = test: Induction of cell cycle arrest at G0/G1 stage in human MOLM-13 cells at 8 uM treated for 24 hrs by PI/RNase staining based flow cytometry (reference value: 53.98 %); type: functional
MOLM-13 [3] = test: cells; conditions: Homo sapiens, MOLM-13, 72 h
MOLM-13 [4] = test: Induction of cell cycle arrest at G0/G1 stage in human MOLM-13 cells at 4 uM treated for 24 hrs by PI/RNase staining based flow cytometry (reference value: 53.98 %); type: functional
MOLM-13 [5] = test: Induction of cell cycle arrest at G0/G1 stage in human MOLM-13 cells at 2 uM treated for 24 hrs by PI/RNase staining based flow cytometry (reference value: 53.98 %); type: functional
K562 [6] = test: cells; conditions: Homo sapiens, K562, 72 h
K562 [7] = test: Induction of cell cycle arrest at G0/G1 stage in human K562 cells at 8 uM treated for 24 hrs by PI/RNase staining based flow cytometry (reference value: 38.8 %); type: functional
HL-60 = test: cells; conditions: Homo sapiens, HL-60, 72 h
K562 [8] = test: Induction of cell cycle arrest at G0/G1 stage in human K562 cells at 16 uM treated for 24 hrs by PI/RNase staining based flow cytometry (reference value: 38.8 %); type: functional

GI50 (HCT-116): 10.2 µM
GI50 (MOLM-13 [3]): 10.7 µM
GI50 (K562 [6]): 26.6 µM
GI50 (HL-60): 8.42 µM
SMILES: Nc1ncnc2[nH]nc(Nc3ccc(F)cc3)c12
Activity (K562 [1]): 48.93%
Activity (MOLM-13 [2]): 66.39%
Activity (MOLM-13 [4]): 59.95%
Activity (MOLM-13 [5]): 55.79%
Activity (K562 [7]): 52.06%
Activity (K562 [8]): 58.15%
